How the values were obtained:
[1] = test system: baboons infused with live E. coli (LD50 dose); experiment: Immunofluorescence and qRT-PCR of hemostatic proteins (PAI-1, TF, TFPI, TM) in lung and liver, baboon LD50 E. coli sepsis; type: in vivo, Papio cyanocephalus; conditions: for PAI1 mRNA in liver: vs non-challenged controls (1±0.6), E. coli alone 22-fold (±9)
[2] = test system: baboons infused with live E. coli (LD50 dose); experiment: Hematological parameters and cell accumulation in organs, baboon LD50 E. coli sepsis; type: in vivo, Papio cyanocephalus
[3] = test system: baboons infused with live E. coli (LD50 dose); experiment: Blood pressure and organ function biochemical tests, baboon LD50 E. coli sepsis; type: in vivo, Papio cyanocephalus
[4] = test system: baboons infused with live E. coli (LD50 dose); experiment: Immunofluorescence of complement pathway proteins in kidney, baboon LD50 E. coli sepsis; type: in vivo, Papio cyanocephalus
[5] = test system: baboons infused with live E. coli (LD50 dose); experiment: Histopathological analysis of organs, baboon LD50 E. coli sepsis; type: in vivo, Papio cyanocephalus
[6] = test system: baboons infused with live E. coli (LD50 dose); experiment: Plasma cytokines multiplex assay, baboon LD50 E. coli sepsis; type: in vivo, Papio cyanocephalus
[7] = test system: complement; experiment: Complement activation products and complement activity in plasma, baboon LD50 E. coli sepsis; type: in vivo, Papio cyanocephalus
[8] = test system: baboons infused with live E. coli (LD50 dose); experiment: Coagulation tests (fibrinogen, FDP, APTT), baboon LD50 E. coli sepsis; type: in vivo, Papio cyanocephalus
[9] = biological target: primate C3 (Homo sapiens, UniProt P01024); conditions: Janssen et al. 2007; cited from earlier work
primate C3, sequence (P01024 23-1663): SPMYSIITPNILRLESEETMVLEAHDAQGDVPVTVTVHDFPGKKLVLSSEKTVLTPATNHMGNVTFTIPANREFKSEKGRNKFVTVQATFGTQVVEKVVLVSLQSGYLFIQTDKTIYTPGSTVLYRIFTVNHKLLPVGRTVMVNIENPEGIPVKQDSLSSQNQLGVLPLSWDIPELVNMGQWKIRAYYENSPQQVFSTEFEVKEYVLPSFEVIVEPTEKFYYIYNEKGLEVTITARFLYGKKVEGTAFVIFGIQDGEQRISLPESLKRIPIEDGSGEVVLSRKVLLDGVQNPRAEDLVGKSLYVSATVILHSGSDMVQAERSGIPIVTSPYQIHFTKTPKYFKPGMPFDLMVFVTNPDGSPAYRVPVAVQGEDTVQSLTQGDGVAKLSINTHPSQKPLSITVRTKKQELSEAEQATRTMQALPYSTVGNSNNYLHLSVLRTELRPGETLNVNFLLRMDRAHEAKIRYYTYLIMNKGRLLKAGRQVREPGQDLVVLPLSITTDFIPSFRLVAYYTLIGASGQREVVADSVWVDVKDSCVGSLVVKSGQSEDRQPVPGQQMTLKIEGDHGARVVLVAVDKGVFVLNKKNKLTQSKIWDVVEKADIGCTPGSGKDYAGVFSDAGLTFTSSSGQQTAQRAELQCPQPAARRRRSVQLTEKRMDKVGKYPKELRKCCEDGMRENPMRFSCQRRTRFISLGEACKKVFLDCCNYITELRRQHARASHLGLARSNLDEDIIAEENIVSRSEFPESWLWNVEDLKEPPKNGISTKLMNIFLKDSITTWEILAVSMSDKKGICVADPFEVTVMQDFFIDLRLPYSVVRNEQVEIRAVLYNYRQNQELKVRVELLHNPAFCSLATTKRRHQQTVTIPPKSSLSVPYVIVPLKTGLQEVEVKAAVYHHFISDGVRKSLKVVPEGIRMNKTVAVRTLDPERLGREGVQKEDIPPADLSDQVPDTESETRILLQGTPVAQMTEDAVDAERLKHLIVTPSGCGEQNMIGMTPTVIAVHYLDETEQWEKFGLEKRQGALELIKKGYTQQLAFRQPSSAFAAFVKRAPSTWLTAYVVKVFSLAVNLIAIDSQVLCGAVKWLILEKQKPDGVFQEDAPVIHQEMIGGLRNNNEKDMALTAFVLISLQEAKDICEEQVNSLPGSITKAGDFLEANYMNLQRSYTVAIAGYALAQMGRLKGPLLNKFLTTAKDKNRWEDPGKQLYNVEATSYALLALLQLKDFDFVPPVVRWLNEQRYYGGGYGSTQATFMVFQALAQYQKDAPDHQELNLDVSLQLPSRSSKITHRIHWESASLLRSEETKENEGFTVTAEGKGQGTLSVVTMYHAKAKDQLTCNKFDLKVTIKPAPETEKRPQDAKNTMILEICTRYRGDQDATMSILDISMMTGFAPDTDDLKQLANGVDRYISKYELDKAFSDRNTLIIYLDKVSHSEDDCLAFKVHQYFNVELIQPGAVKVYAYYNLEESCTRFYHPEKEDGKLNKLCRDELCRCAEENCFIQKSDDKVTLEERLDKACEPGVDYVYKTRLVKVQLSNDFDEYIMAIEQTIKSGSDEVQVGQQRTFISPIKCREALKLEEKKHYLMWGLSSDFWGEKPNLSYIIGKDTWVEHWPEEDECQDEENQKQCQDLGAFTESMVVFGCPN

[10] = test system: human complement; conditions: relative to baboon complement; Sahu et al. 2003; cited from earlier work
[11] = test system: baboons infused with live E. coli (LD100 dose); experiment: Survival time in LD100 model of E. coli sepsis in baboons; type: in vivo, Papio cyanocephalus; conditions: for Survival Time: no antibiotics
Description: (§1) Reagents, Compstatin analog and live E. coli organisms were obtained or prepared as described in Example 1. Papio cyanocephalus baboons were infused with 2-3×10^10 CFU/kg live E. coli (LD100 dose) as described (Taylor F B, Jr., et al., 2000, Blood 95: 1680-1686). The time point at which the infusion was started was indicated as T-0, a time point of n minutes or hours thereafter referred to as T+n minutes (or hours). The Compstatin analog was administered at three different concentrations as an intravenous bolus followed by continuous infusion.
(§2) Complement activity was measured in accordance with known methods. Survival time was also recorded.

[12] = test system: complement; experiment: Complement activation in LD100 model of E. coli sepsis in baboons; type: in vivo, Papio cyanocephalus; conditions: for % Complement Activation at T+120 min: untreated avg. 2.8
Description: as §1, §2

[13] = test system: baboon complement; conditions: relative to human complement; Sahu et al. 2003; cited from earlier work
[14] = lung cryosections immunofluorescence, both early and late treatments, FIG. 5A
[15] = immunofluorescence MFI of kidney cryosections, T+24, T0 and T+5 treatment, FIG. 2
[16] = kidney immunofluorescence, FIG. 2
[17] = histology at 24 hrs vs non-treated group
[18] = both preventive and rescue therapy, data not shown
[19] = septic baboons, infusion with Compstatin analog

Ac-I[CVW(Me)QDWGAHRCT]I-NH2 [Compstatin analog]
E. coli induced PAI-1 staining in lung [1, 14]: decreased
E. coli induced TF staining in lung [1, 14]: decreased
TFPI in endothelial cells of lung [1, 14]: protected against sepsis-induced downregulation
TM in endothelial cells of lung [1, 14]: protected against sepsis-induced downregulation
TF expression in the lung ([1]; treated animals): decrease
monocyte/macrophages infiltration in the lung ([1]; treated animals): decrease
PAI1 mRNA in liver ([1]; treated at T0, mean (±SEM 8)): 8 fold
PAI1 mRNA in liver ([1]; treated at T+5, mean (±SEM 0.8)): 4 fold
PAI-1 expression in endothelial cells and macrophages ([1]; treated versus non-treated septic baboons): down-regulated
accumulation of macrophages in the lung ([2]; FIG. 3C): lower accumulation
accumulation of platelets in the lung and on the surface of the large vessels ([2]; FIG. 3D-E): lower accumulation
WBC count in blood ([2]; both prevention and rescue regimens, FIG. 3A): faster WBC recovery
platelet count in blood (platelet consumption) ([2]; both prevention and rescue regimens, FIG. 3B): lower plasma platelet consumption
number of neutrophils ([2]; immunostaining for cell specific markers, not shown): without significant changes
CD68 positive macrophages ([2]; immunostaining, lung, FIG. 3C): significant decrease
C5b9 deposition on aggregated platelets ([2]; lung and large vessels, FIG. 3D-E): decreased C5b9 deposition
creatinine, magnitude of the response ([3]; T+8 and T+24, two treatment groups vs non treated septic animals, FIG. 6B): lower
LDH, magnitude of the response ([3]; T+8 and T+24, two treatment groups vs non treated septic animals, FIG. 6C): lower
ALT, magnitude of the response ([3]; T+8 and T+24, two treatment groups vs non treated septic animals, FIG. 6D): lower
AST, magnitude of the response ([3]; T+8 and T+24, two treatment groups vs non treated septic animals, FIG. 6E): lower
decrease of mean systemic arterial blood pressure ([3]; early treatment (T0 to T+8), FIG. 6A): virtually abolished this decrease
mean systemic arterial blood pressure ([3]; treatment during the second stage (T+5 to T+11), compared with septic untreated baboons, FIG. 6A): higher recovery of the blood pressure in the late phase
C3b deposition in the kidney [4, 15]: significantly inhibited
C5b9 deposition in the kidney [4, 15]: significantly inhibited
MBL deposition in the kidney [4, 15]: significantly inhibited
shedding of CD55 from the endothelial surface [4, 16]: protected against shedding
shedding of CD59 from the endothelial surface [4, 16]: protected against shedding
mRNA expression of CD55 and CD59 ([4]; qRT-PCR, data not shown): without significantly affecting
histopathologic changes of the tissues (graded 0 to 4) ([5]; T+24, two treated groups (T0, T+5) vs E coli challenge group, P<0.001, with the exception of the lung congestion, FIG. 7): significantly less severe
cell death in adrenals and spleen [5, 17]: decreased cell death
hepatocyte vacuolization and liver degeneration [5, 17]: lack of hepatocyte vacuolization and liver degeneration
leukocyte infiltration in the lung, liver adrenals and spleen [5, 17]: less leukocyte infiltration
thrombosis or capillary leak in the lungs [5, 17]: no obvious signs of thrombosis or capillary leak
tubular necrosis and glomerular thrombosis in the kidneys [5, 17]: no or less tubular necrosis and glomerular thrombosis
organ protection by histological analysis ([5]; organs collected after 24 hrs): substantial organ-protection
effect on plasma cytokines ([6]; 23-plex assay, nine increased by sepsis, except eotaxin and IL-6, data not shown): marginal
plasma IL-6 [6, 18]: reduction
plasma eotaxin [6, 18]: reduction
plasma complement activity ([7]; 10 mg/kg iv bolus + 60 μg/kg/min, both preventive (T0 to T+8) and rescue (T+5 to T+11) treatments, FIG. 1A): inhibited
plasma TCC levels ([7]; 10 mg/kg iv bolus + 60 μg/kg/min, both preventive (T0 to T+8) and rescue (T+5 to T+11) treatments, FIG. 1B): inhibited
late rise of plasma TCC levels ([7]; rescue regimen (T+5 to T+11) compared with prevention group, FIG. 1B): averting the late rise observed in the prevention group
C3a generation [7, 19]: rapidly inhibited
C3b generation [7, 19]: rapidly inhibited
fibrinogen levels ([8]; after 24 hours, compared with non-treated animals, FIG. 4A): fully recovered and overshot the initial values
fibrinogen consumption ([8]; first eight hours post-challenge, FIG. 4A): reduced fibrinogen consumption
FDP levels ([8]; treated vs non-treated animals, FIG. 4B): significantly lower
APTT ([8]; treated vs non-treated animals, FIG. 4C): slightly decreased

CC[C@H](C)[C@H](N)C(=O)N[C@H]1CSSC[C@@H](C(=O)N[C@H](C(N)=O)[C@@H](C)O)NC(=O)[C@H](CCCN=C(N)N)NC(=O)[C@H](Cc2cnc[nH]2)NC(=O)[C@H](Cc2cnc[nH]2)NC(=O)CNC(=O)[C@H](Cc2c[nH]c3ccccc23)NC(=O)[C@H](CC(=O)O)NC(=O)[C@H](CCC(N)=O)NC(=O)[C@H](C(C)C)NC(=O)[C@H](C(C)C)NC1=O [Compstatin, Ile-Cys-Val-Val-Gln-Asp-Trp-Gly-His-His-Arg-Cys-Thr]
binding to primate C3 [9]: specifically binds
inhibition of human complement [10]: approximately equimolar concentrations
Survival Time ([11]; animal 1, bolus 0.33 mg/kg T−0, 1.74 mg/kg T+60, infusion 20 μg/min/kg (8 hrs)): 31.5 h
Survival Time ([11]; animal 2, bolus 1.0 mg/kg T−0, 2.3 mg/kg T+60, infusion 20 μg/min/kg (8 hrs)): 7.0 h
Survival Time ([11]; animal 3, bolus 10 mg/kg T−0, infusion 200 μg/min/kg (8 hrs)): 11.5 h
survival of treated animals ([11]; no antibiotic treatment): died within a few hours
% Complement Activation at T+120 min ([12]; animal 1, bolus 0.33 mg/kg T−0, 1.74 mg/kg T+60, infusion 20 μg/min/kg (8 hrs), total 58 mg): 0.6%
% Complement Activation at T+120 min ([12]; animal 2, bolus 1.0 mg/kg T−0, 2.3 mg/kg T+60, infusion 20 μg/min/kg (8 hrs), total 78 mg): 0.5%
% Complement Activation at T+120 min ([12]; animal 3, bolus 10 mg/kg T−0, infusion 200 μg/min/kg (8 hrs), total 760 mg): 0.0%
inhibition of complement activation by T+120 minutes ([12]; animal receiving the highest concentration): complete inhibition
inhibition of complement activation by T+120 minutes ([12]; animals receiving the lesser concentrations): substantial inhibition
inhibition of baboon complement [13]: approximately equimolar concentrations
